Here are results for 24 compounds from US20260258025A1, “INHIBITORS OF TDP-43 AND TAU AGGREGATION” (Aquinnah Pharmaceuticals, inc., priority 2023, published 2026).

pIC50: −log10 of the molar value.

This test relates to tau stress granules. Nature of the test: SY5Y-tT1 tau arsenite assay (tau stress granules per cell). Type of test: cell-based. The note with it: SY5Y-tT1 cells, 2 hours compound, 90 minutes arsenite, 50% reduction of granules per cell, read-out: IC50, Inhibitor Activity of Tau Stress Granules. As to the method: Example 91: In Vitro Efficacy Assay of Exemplary Compounds—SY5Y-tT1 Tau Arsenite/Thapsigargin Assay
• Before harvesting cells—checked to see if cells are ~80% confluency in their flask • 1. Aspirated growth media from flask. • 2. Added 4 mL of (0.25%) trypsin-EDTA (REF: 25200-056) • 3. Placed in 37° C. incubator for 5 minutes. • 4. Removed from incubator and added 11 mL growth media, washing any remaining cells adhered to the bottom of the flask. • 5. Transferred cell containing media to a 50 mL conical tube and spun for 5 minutes at 800 rpm. • 6. Aspirated supernatant and added 5 mL of growth media to cell pellet, triturating to make a homogenous cell solution. • 7. After counting cells, followed one of these plating paradigms: • (A) If treating with arsenite, plated cells at […] with tetracycline solution (5 mg/mL) added to cell solution at 1:5000 • (B) If treating with thapsigargin, plated cells at 4,000 cells/well with tetracycline solution (5 mg/mL) added to cell solution at 1:5000 • 8. Incubated at 37° C. for 48 hours.
• Solubilized all compounds to 10 mM prior to making dilution plates • 1. To a 96-well U-bottom plate (Falcon Non-Tissue Culture Treated Plates REF: 351177) added 120 μL growth media to all 96 wells, with an additional 58.2 μL to row A. • 2. Added 1.8 μL of 10 mM compound stock to wells A1-11, adding 1.8 μL of 10 mM PERKi stock (Selleck Chemistry GSK2606414 Cat No. S7307) as the control. • 3. Serially diluted 60 μL from row A down through each row, finishing with 180 μL total volume in row H. • 4. Transferred 12.5 μL of each dilution plate well to the correlating wells in cell plate, being careful not to touch cells adhered to bottom of the plate. • 5. Incubated for 2 hours.
• 1. Added 720 μL of 0.05 M sodium arsenite solution (CAS #: 7784-46-5) to 10 mL of growth media for a final concentration of […] arsenite solution, mix well. • 2. Added 12.5 μL of arsenite solution to all wells of compounds treated plate intended for arsenite treatment. • 3. Incubated at 37° C. for 90 minutes.
• Before beginning this part of the protocol: • Made 1×PBS by diluting 10× stock (10×, Phosphate buffered saline, Fisher #BP399— • 4) in sterile deionized water. • Diluted paraformaldehyde (16% Paraformaldehyde solution, Electron Microscopy Sciences #15710-S) to 4% in 1×PBS. • Diluted Hoechst stain (Life Technologies #H3570) 1:10,000 in 1×PBS (1 μL Hoechst per 10 mL 1×PBS). • Both solutions were protected from light. • 1) After compound treatment, aspirated media from cell plates and gently added in 50 μL of 4% paraformaldehyde for 10 min protected from light at room temperature. • 2) Aspirated paraformaldehyde solution and gently added 50 μL of 1:10,000 Hoechst solution to each well and incubated for 10 min protected from light at room temperature. • 3) Aspirated Hoechst solution and gently added 100 μL 1×PBS. Cover the plate with aluminum film (VWR #60941-126). • 4) Stored at 4° C. or used immediately for imaging on ThermoFisher CX7 imager.
Exemplary compounds of the disclosed herein were evaluated for efficacy for inhibitor activity of tau stress granules in the arsenite assay and quantified as drug concentration providing a 50% reduction (IC50) of granules per cell is shown in Table 4.
In Table 4 below, A indicates an IC50 (μM)<0.5 μM, B indicates an IC50 (μM) 0.5 μM to <1 μM, C indicates an IC50 (μM) 1 μM to <2 μM, and D indicates an IC50 (μM) 2 μM to <6 μM.
Consider `Cc1cc(-c2ccc(C3CCN(C)CC3)cn2)sc1C(=O)N1CC[C@H](N)C1` [Compound 104, (S)-(3-aminopyrrolidin-1-yl)(3-methyl-5-(5-(1-methylpiperidin-4-yl)pyridin-2-yl)thiophen-2-yl)methanone], for which the pIC50 (usually −log10 of the IC50, conventionally taken in molar units) is 5.70 to 6.00. The same measure for `Cc1cc(-c2ccc(C3CCN(C)CC3)cc2F)sc1C(=O)N1CC[C@H](N)C1` [Compound 128, (S)-(3-aminopyrrolidin-1-yl)(5-(2-fluoro-4-(1-methylpiperidin-4-yl)phenyl)-3-methylthiophen-2-yl)methanone]: 5.70 to 6.00.

For the compound `COc1cc(-c2cc(C)c(C(=O)N3CC[C@H](N)C3)s2)ccc1C1CCN(C)CC1` [Compound 111, (S)-(3-aminopyrrolidin-1-yl)(5-(3-methoxy-4-(1-methylpiperidin-4-yl)phenyl)-3-methylthiophen-2-yl)methanone], the pIC50 is 5.22 to 5.70.

Consider `Cc1cc(-c2cc(C)c(C(=O)N3CC[C@H](N)C3)s2)ccc1C1CCN(C)CC1` [Compound 144, (S)-(3-aminopyrrolidin-1-yl)(3-methyl-5-(3-methyl-4-(1-methylpiperidin-4-yl)phenyl)thiophen-2-yl)methanone], for which the pIC50 was 5.22 to 5.70. Consider `Cc1cc(-c2ccc(C3CCNCC3)c(F)c2)sc1C(=O)N1CC[C@H](N)C1` [Compound 140, (S)-(3-aminopyrrolidin-1-yl)(5-(3-fluoro-4-(piperidin-4-yl)phenyl)-3-methylthiophen-2-yl)methanone], for which the pIC50 is 6.00 to 6.30. As to `Cc1cc(-c2ccc(C3(N(C)C)CCOCC3)cc2)sc1C(=O)N1CC[C@H](N)C1` [Compound 166, (S)-(3-aminopyrrolidin-1-yl)(5-(4-(4-(dimethylamino)tetrahydro-2H-pyran-4-yl)phenyl)-3-methylthiophen-2-yl)methanone], the pIC50 was > 6.30. The same measure for `Cc1cc(C2CCN(C)CC2)ccc1-c1cc(C)c(C(=O)N2CC[C@H](N)C2)s1` [Compound 134, (S)-(3-aminopyrrolidin-1-yl)(3-methyl-5-(2-methyl-4-(1-methylpiperidin-4-yl)phenyl)thiophen-2-yl)methanone]: 5.22 to 5.70; for `Cc1cc(-c2ccc(N3CCN(C4CCCCC4)CC3)cc2)sc1C(=O)N1CC[C@H](N)C1` [Compound 148, (S)-(3-aminopyrrolidin-1-yl)(5-(4-(4-cyclohexylpiperazin-1-yl)phenyl)-3-methylthiophen-2-yl)methanone]: 5.70 to 6.00; for `Cc1cc(-c2ccc(N3CCN(C4CCC4)CC3)cc2)sc1C(=O)N1CC[C@H](N)C1` [Compound 158, (S)-(3-aminopyrrolidin-1-yl)(5-(4-(4-cyclobutylpiperazin-1-yl)phenyl)-3-methylthiophen-2-yl)methanone]: 5.70 to 6.00. Then `Cc1cc(-c2ccc(C3CCNCC3)cc2F)sc1C(=O)N1CC[C@H](N)C1` [Compound 129, (S)-(3-aminopyrrolidin-1-yl)(5-(2-fluoro-4-(piperidin-4-yl)phenyl)-3-methylthiophen-2-yl)methanone], with 5.22 to 5.70. The same measure for `Cc1cc(-c2ccc(C3CCN(CC4CCOCC4)CC3)cc2)sc1C(=O)N1CC[C@H](N)C1` [Compound 147, (S)-(3-aminopyrrolidin-1-yl)(3-methyl-5-(4-(1-((tetrahydro-2H-pyran-4-yl)methyl)piperidin-4-yl)phenyl)thiophen-2-yl)methanone]: > 6.30; for `C=CCc1cc(-c2ccc(C3CCN(C(C)C)CC3)cc2)sc1C(=O)N1CC[C@H](N)C1` [Compound 109, (S)-(3-allyl-5-(4-(1-isopropylpiperidin-4-yl)phenyl)thiophen-2-yl)(3-aminopyrrolidin-1-yl)methanone]: > 6.30. As for `Cc1cc(-c2ccc(N3CCN(C(C)C)CC3)cc2)sc1C(=O)N1CC[C@H](N)C1` [Compound 159, (S)-(3-aminopyrrolidin-1-yl)(5-(4-(4-isopropylpiperazin-1-yl)phenyl)-3-methylthiophen-2-yl)methanone], the pIC50 was 6.00 to 6.30. Then `Cc1cc(-c2ccc(C3CCN(CC4CCCCO4)CC3)cc2)sc1C(=O)N1CC[C@H](N)C1` (stereo partly drawn) [Compound 119, ((S)-3-aminopyrrolidin-1-yl)(3-methyl-5-(4-(1-((tetrahydro-2H-pyran-2-yl)methyl)piperidin-4-yl)phenyl)thiophen-2-yl)methanone], with 6.00 to 6.30; and `Cc1cc(-c2ccc(N3CCNCC3)cc2)sc1C(=O)N1CC[C@H](N)C1` [Compound 162, (S)-(3-aminopyrrolidin-1-yl)(3-methyl-5-(4-(piperazin-1-yl)phenyl)thiophen-2-yl)methanone], with 5.70 to 6.00; and `Cc1cc(-c2cc(C)c(C(=O)N3CC[C@H](N)C3)s2)ccc1C1CCNCC1` [Compound 149, (S)-(3-aminopyrrolidin-1-yl)(3-methyl-5-(3-methyl-4-(piperidin-4-yl)phenyl)thiophen-2-yl)methanone], with > 6.30. On to `Cc1cc(-c2ccc3c(c2)CCOC3)sc1C(=O)N1CC[C@H](N)C1` [Compound 165, (S)-(3-aminopyrrolidin-1-yl)(5-(isochroman-6-yl)-3-methylthiophen-2-yl)methanone], for which the pIC50 is 6.00 to 6.30. The same measure for `Cc1cc(-c2ccc(C3CCN(C)CC3)cc2OC(F)(F)F)sc1C(=O)N1CC[C@H](N)C1` [Compound 103, (S)-(3-aminopyrrolidin-1-yl)(3-methyl-5-(4-(1-methylpiperidin-4-yl)-2-(trifluoromethoxy)phenyl)thiophen-2-yl)methanone]: 5.22 to 5.70; for `Cc1cc(-c2ccc(C3CCN(C4COC4)CC3)cc2)sc1C(=O)N1CC[C@H](N)C1` [Compound 164, (S)-(3-aminopyrrolidin-1-yl)(3-methyl-5-(4-(1-(oxetan-3-yl)piperidin-4-yl)phenyl)thiophen-2-yl)methanone]: > 6.30; for `CCCc1cc(-c2ccc(C3CCN(C(C)C)CC3)cc2)sc1C(=O)N1CC[C@H](N)C1` [Compound 110, (S)-(3-aminopyrrolidin-1-yl)(5-(4-(1-isopropylpiperidin-4-yl)phenyl)-3-propylthiophen-2-yl)methanone]: 5.70 to 6.00. Consider `C=Cc1cc(-c2ccc(C3CCN(C(C)C)CC3)cc2)sc1C(=O)N1CC[C@H](N)C1` [Compound 117, (S)-(3-aminopyrrolidin-1-yl)(5-(4-(1-isopropylpiperidin-4-yl)phenyl)-3-vinylthiophen-2-yl)methanone], for which the pIC50 was 5.70 to 6.00.

As to `CCc1cc(-c2ccc(C3CCN(C(C)C)CC3)cc2)sc1C(=O)N1CC[C@H](N)C1` [Compound 118, (S)-(3-aminopyrrolidin-1-yl)(3-ethyl-5-(4-(1-isopropylpiperidin-4-yl)phenyl)thiophen-2-yl)methanone], the pIC50 was 5.70 to 6.00. For the compound `Cc1cc(-c2ccc(C3CCN(C)CC3)c(OC(F)(F)F)c2)sc1C(=O)N1CC[C@H](N)C1` [Compound 112, (S)-(3-aminopyrrolidin-1-yl)(3-methyl-5-(4-(1-methylpiperidin-4-yl)-3-(trifluoromethoxy)phenyl)thiophen-2-yl)methanone], the pIC50 was 5.22 to 5.70. As for `Cc1cc(-c2ccc(C3CCN(C)CC3)cc2Cl)sc1C(=O)N1CC[C@H](N)C1` [Compound 120, (S)-(3-aminopyrrolidin-1-yl)(5-(2-chloro-4-(1-methylpiperidin-4-yl)phenyl)-3-methylthiophen-2-yl)methanone], the pIC50 was 5.70 to 6.00.
